Reference: ChEMBL document CHEMBL1201862, “PubChem BioAssay data set” (2004)
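Five compound concentrations were applied to cells in 96-well plates for 48 hours; endpoints were derived by simple linear interpolation of the resulting dose-response curve. GI50: concentration for 50% inhibition of growth.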 The source made the active and inactive calls. Cut-off read from the data, not from the text of the source: active = GI50 up to about 1.1 µM and inactive = higher.

What was measured:
Test in all cases: NCI-60 cell line screen, 48 h
TK-10 = tested on: TK-10
SF-539 = tested on: SF-539
A549 = tested on: A549
SW-620 = tested on: SW-620
HCC 2998 = tested on: HCC 2998
PC-3 = tested on: PC-3
OVCAR-8 = tested on: OVCAR-8
UACC-257 = tested on: UACC-257
A498 = tested on: A498
SF-295 = tested on: SF-295
KM12 = tested on: KM12
MDA-N = tested on: MDA-N
HOP-62 = tested on: HOP-62
OVCAR-3 = tested on: OVCAR-3
SNB-75 = tested on: SNB-75
Hs-578T = tested on: Hs-578T
HT-29 = tested on: HT-29
RXF 393 = tested on: RXF 393
SF-268 = tested on: SF-268
T47D = tested on: T47D
M14 = tested on: M14
Malme-3M = tested on: Malme-3M
IGROV-1 = tested on: IGROV-1
SNB-19 = tested on: SNB-19
MDA-MB-435 = tested on: MDA-MB-435
MCF7 = tested on: MCF7
K562 = tested on: K562
ACHN = tested on: ACHN
COLO 205 = tested on: COLO 205
RPMI-8226 = tested on: RPMI-8226
SK-OV-3 = tested on: SK-OV-3
HL-60 = tested on: HL-60
U-251 = tested on: U-251
SK-MEL-28 = tested on: SK-MEL-28
UACC-62 = tested on: UACC-62
786-0 = tested on: 786-0
MOLT-4 = tested on: MOLT-4
UO-31 = tested on: UO-31
OVCAR-4 = tested on: OVCAR-4
BT-549 = tested on: BT-549
EKVX = tested on: EKVX
SR = tested on: SR
NCI-H522 = tested on: NCI-H522
NCI/ADR-RES = tested on: NCI/ADR-RES
SK-MEL-2 = tested on: SK-MEL-2
CCRF-CEM = tested on: CCRF-CEM
NCI-H460 = tested on: NCI-H460
DU-145 = tested on: DU-145
OVCAR-5 = tested on: OVCAR-5
HCT-116 = tested on: HCT-116
HCT-15 = tested on: HCT-15
SK-MEL-5 = tested on: SK-MEL-5
SN12C = tested on: SN12C
LOX IMVI = tested on: LOX IMVI
MDA-MB-231 = tested on: MDA-MB-231
NCI-H226 = tested on: NCI-H226
NCI-H23 = tested on: NCI-H23
CAKI-1 = tested on: CAKI-1
HOP-92 = tested on: HOP-92

For CC(C)(C)NC(=O)CCC1C(C(=O)NC(C)(C)C)C2(Cl)C(Cl)=C(Cl)C1(Cl)C2(Cl)Cl (stereo not given), which GI50 (TK-10) is on record?
The GI50 was > 100 µM (inactive).

And the GI50 (SF-539)?
Its GI50 is > 100 µM (inactive).

And the GI50 (A549)?
Its GI50 is > 100 µM (inactive).

And the GI50 (SW-620)?
Its GI50 is > 100 µM (inactive).

What about the GI50 (HCC 2998) of the same compound?
Its GI50 is > 100 µM (inactive).

And the GI50 (PC-3)?
The GI50 was > 100 µM (inactive).

What about the GI50 (OVCAR-8) of the same compound?
Its GI50 is > 100 µM (inactive).

And the GI50 (UACC-257)?
The GI50 was > 100 µM (inactive).

What about the GI50 (A498) of the same compound?
Its GI50 is > 100 µM (inactive).

What about the GI50 (SF-295) of the same compound?
The GI50 was > 100 µM (inactive).

What about the GI50 (KM12) of the same compound?
Its GI50 is > 100 µM (inactive).

And the GI50 (MDA-N)?
Its GI50 is > 100 µM (inactive).

What about the GI50 (HOP-62) of the same compound?
The GI50 was > 100 µM (inactive).

What about the GI50 (OVCAR-3) of the same compound?
The GI50 was > 100 µM (inactive).

What about the GI50 (SNB-75) of the same compound?
Its GI50 is > 100 µM (inactive).

And the GI50 (Hs-578T)?
The GI50 was > 100 µM (inactive).

What about the GI50 (HT-29) of the same compound?
The GI50 was > 100 µM (inactive).

And the GI50 (RXF 393)?
Its GI50 is > 100 µM (inactive).

What about the GI50 (SF-268) of the same compound?
Its GI50 is > 100 µM (inactive).

And the GI50 (T47D)?
The GI50 was > 100 µM (inactive).

And the GI50 (M14)?
The GI50 was > 100 µM (inactive).

And the GI50 (Malme-3M)?
Its GI50 is > 100 µM (inactive).

What about the GI50 (IGROV-1) of the same compound?
Its GI50 is > 100 µM (inactive).

And the GI50 (SNB-19)?
Its GI50 is > 100 µM (inactive).

And the GI50 (MDA-MB-435)?
Its GI50 is > 100 µM (inactive).

What about the GI50 (MCF7) of the same compound?
Its GI50 is > 100 µM (inactive).

What about the GI50 (K562) of the same compound?
Its GI50 is > 100 µM (inactive).

What about the GI50 (ACHN) of the same compound?
Its GI50 is > 100 µM (inactive).

What about the GI50 (COLO 205) of the same compound?
The GI50 was > 100 µM (inactive).

And the GI50 (RPMI-8226)?
Its GI50 is > 100 µM (inactive).

And the GI50 (SK-OV-3)?
Its GI50 is > 100 µM (inactive).

What about the GI50 (HL-60) of the same compound?
Its GI50 is > 100 µM (inactive).

And the GI50 (U-251)?
The GI50 was > 100 µM (inactive).

And the GI50 (SK-MEL-28)?
The GI50 was > 100 µM (inactive).

What about the GI50 (UACC-62) of the same compound?
The GI50 was > 100 µM (inactive).

What about the GI50 (786-0) of the same compound?
The GI50 was > 100 µM (inactive).

And the GI50 (MOLT-4)?
The GI50 was > 100 µM (inactive).

And the GI50 (UO-31)?
The GI50 was > 100 µM (inactive).

And the GI50 (OVCAR-4)?
The GI50 was > 100 µM (inactive).

And the GI50 (BT-549)?
The GI50 was > 100 µM (inactive).

What about the GI50 (EKVX) of the same compound?
Its GI50 is > 100 µM (inactive).

What about the GI50 (SR) of the same compound?
The GI50 was > 100 µM (inactive).

And the GI50 (NCI-H522)?
Its GI50 is > 100 µM (inactive).

And the GI50 (NCI/ADR-RES)?
Its GI50 is > 100 µM (inactive).

And the GI50 (SK-MEL-2)?
The GI50 was > 100 µM (inactive).

And the GI50 (CCRF-CEM)?
Its GI50 is > 100 µM (inactive).

And the GI50 (NCI-H460)?
Its GI50 is > 100 µM (inactive).

And the GI50 (DU-145)?
The GI50 was > 100 µM (inactive).

And the GI50 (OVCAR-5)?
Its GI50 is > 100 µM (inactive).

And the GI50 (HCT-116)?
The GI50 was > 100 µM (inactive).

And the GI50 (HCT-15)?
Its GI50 is greater than 100 µM.

And the GI50 (SK-MEL-5)?
Its GI50 is > 100 µM (inactive).

And the GI50 (SN12C)?
The GI50 was > 100 µM (inactive).

What about the GI50 (LOX IMVI) of the same compound?
Its GI50 is > 100 µM (inactive).

What about the GI50 (MDA-MB-231) of the same compound?
The GI50 was > 100 µM (inactive).

And the GI50 (NCI-H226)?
The GI50 was > 100 µM (inactive).

And the GI50 (NCI-H23)?
Its GI50 is > 100 µM (inactive).

How did the GI50 (TK-10) turn out when Cc1ccc(C(=O)O)c(CC2Cc3c(C)cccc3C2=O)c1 (stereo not given) was run?
Its GI50 is > 100 µM (inactive).

And the GI50 (SF-539)?
Its GI50 is > 100 µM (inactive).

And the GI50 (A549)?
Its GI50 is > 100 µM (inactive).

And the GI50 (SW-620)?
The GI50 was > 100 µM (inactive).

What about the GI50 (HCC 2998) of the same compound?
Its GI50 is > 100 µM (inactive).

What about the GI50 (PC-3) of the same compound?
The GI50 was > 100 µM (inactive).

And the GI50 (OVCAR-8)?
The GI50 was > 100 µM (inactive).

And the GI50 (UACC-257)?
Its GI50 is > 100 µM (inactive).

And the GI50 (CAKI-1)?
The GI50 was > 100 µM (inactive).

And the GI50 (SF-295)?
The GI50 was > 100 µM (inactive).

What about the GI50 (KM12) of the same compound?
The GI50 was > 100 µM (inactive).

What about the GI50 (MDA-N) of the same compound?
Its GI50 is > 100 µM (inactive).

And the GI50 (HOP-62)?
Its GI50 is > 100 µM (inactive).

What about the GI50 (OVCAR-3) of the same compound?
The GI50 was > 100 µM (inactive).

And the GI50 (SNB-75)?
Its GI50 is > 100 µM (inactive).

And the GI50 (Hs-578T)?
The GI50 was > 100 µM (inactive).

What about the GI50 (HT-29) of the same compound?
Its GI50 is > 100 µM (inactive).

And the GI50 (RXF 393)?
Its GI50 is > 100 µM (inactive).

What about the GI50 (SF-268) of the same compound?
The GI50 was > 100 µM (inactive).

What about the GI50 (T47D) of the same compound?
Its GI50 is > 100 µM (inactive).

And the GI50 (M14)?
Its GI50 is > 100 µM (inactive).

What about the GI50 (Malme-3M) of the same compound?
The GI50 was > 100 µM (inactive).

What about the GI50 (IGROV-1) of the same compound?
The GI50 was > 100 µM (inactive).

What about the GI50 (SNB-19) of the same compound?
The GI50 was > 100 µM (inactive).

And the GI50 (MDA-MB-435)?
The GI50 was > 100 µM (inactive).

And the GI50 (MCF7)?
The GI50 was > 100 µM (inactive).

And the GI50 (K562)?
The GI50 was > 100 µM (inactive).

And the GI50 (ACHN)?
Its GI50 is > 100 µM (inactive).

What about the GI50 (COLO 205) of the same compound?
Its GI50 is > 100 µM (inactive).

And the GI50 (RPMI-8226)?
Its GI50 is > 100 µM (inactive).

What about the GI50 (SK-OV-3) of the same compound?
Its GI50 is > 100 µM (inactive).

And the GI50 (HL-60)?
Its GI50 is > 100 µM (inactive).

What about the GI50 (U-251) of the same compound?
The GI50 was > 100 µM (inactive).

And the GI50 (SK-MEL-28)?
Its GI50 is > 100 µM (inactive).

What about the GI50 (UACC-62) of the same compound?
Its GI50 is > 100 µM (inactive).

What about the GI50 (786-0) of the same compound?
Its GI50 is > 100 µM (inactive).

And the GI50 (MOLT-4)?
Its GI50 is > 100 µM (inactive).

What about the GI50 (UO-31) of the same compound?
The GI50 was > 100 µM (inactive).

What about the GI50 (OVCAR-4) of the same compound?
The GI50 was > 100 µM (inactive).

What about the GI50 (BT-549) of the same compound?
Its GI50 is > 100 µM (inactive).

And the GI50 (EKVX)?
Its GI50 is > 100 µM (inactive).

And the GI50 (SR)?
Its GI50 is > 100 µM (inactive).

What about the GI50 (NCI-H522) of the same compound?
The GI50 was > 100 µM (inactive).

What about the GI50 (NCI/ADR-RES) of the same compound?
The GI50 was > 100 µM (inactive).

What about the GI50 (SK-MEL-2) of the same compound?
Its GI50 is > 100 µM (inactive).

What about the GI50 (CCRF-CEM) of the same compound?
The GI50 was > 100 µM (inactive).

And the GI50 (NCI-H460)?
The GI50 was > 100 µM (inactive).

And the GI50 (DU-145)?
The GI50 was > 100 µM (inactive).

And the GI50 (OVCAR-5)?
The GI50 was > 100 µM (inactive).

What about the GI50 (HCT-116) of the same compound?
Its GI50 is > 100 µM (inactive).

And the GI50 (HCT-15)?
Its GI50 is greater than 100 µM.

And the GI50 (HOP-92)?
The GI50 was > 100 µM (inactive).

And the GI50 (SK-MEL-5)?
Its GI50 is > 100 µM (inactive).

What about the GI50 (SN12C) of the same compound?
The GI50 was > 100 µM (inactive).

And the GI50 (LOX IMVI)?
Its GI50 is 90.4 µM (inactive).

And the GI50 (MDA-MB-231)?
Its GI50 is > 100 µM (inactive).

And the GI50 (NCI-H226)?
Its GI50 is > 100 µM (inactive).

What about the GI50 (NCI-H23) of the same compound?
Its GI50 is > 100 µM (inactive).
